Test results taken from paper PMC11705955, “Lack of activity of HIV-1 integrase strand-transfer inhibitors on recombinase activating gene (RAG) activity at clinically relevant concentrations” (Microbiology Spectrum, 2024).
Each block holds one molecule with its values, some of them ahead of it.

What was measured:
[1] = tested on: murine mCherry-core RAG1 / mCherry-RAG2 V(D)J recombination in Expi293F cells; assay: Extrachromosomal cell-based V(D)J recombination assay (GFP reporter, flow cytometry)
Excerpt: To further evaluate the effect of HIV-1 integrase inhibitors on RAG activity in a cellular context, we optimized a novel extrachromosomal cell-based V(D)J recombination assay, enabling assessment of multiple compounds in a dose–response manner by flow cytometry ([33]). The schematic of FL murine RAG1 and RAG2 proteins, including the active site residues (DDE motif) in RAG1 and catalytically essential core regions of each protein, are shown in Fig. 5A. The cell-based assay used vectors that encode for the core RAG1 protein (instead of the FL version) and FL murine RAG2 expressed as C-terminal fusions to mCherry, termed mCherry-core RAG1 and mCherry-RAG2. The core regions of each RAG protein are sufficient to catalyze V(D)J recombination, whereas the non-core regions function to regulate the recombination reaction ([13]). […] The consensus RSS used in this assay contains a conserved heptamer and nonamer separated by 12 or 23 non-conserved bp (12RSS and 23RSS) (Fig. 5B). A general schematic of the design for the plasmid substrate with the 12RSS and 23RSS orientations before and after V(D)J recombination is presented in Fig. 5C. More specifically, the plasmid substrate pMAXgfp-INV was designed with a 12RSS and a 23RSS flanking each side of the Pontellina plumata green fluorescent protein gene (termed maxGFP), where the gene is in an inverted orientation relative to the CMV promoter (Fig. 5D). The RSSs are positioned in a co-linear orientation, such that successful V(D)J recombination activity will result in inversion of the maxGFP gene to place it in a transcriptionally active orientation with resulting expression of GFP. Detection of GFP-expressing cells using microscopy and flow cytometry was used as a direct readout of V(D)J recombination activity.
For the recombination assay, the pMAXgfp-INV plasmid substrate and RAG1/RAG2 expression vectors (mCherry-core RAG1 and mCherry-RAG2) were transiently transfected into Expi293 cells in the absence or presence of integrase inhibitors and were assessed via microscopy and flow cytometry. The fluorescence signal from the mCherry-tag is used to assess transfection efficiency of RAG1/RAG2 vectors (Fig. 6A). We observed that transfection of the pMAXgfp-INV substrate into Expi293 cells with RAG1/RAG2 expression vectors yielded robust GFP expression 48 h post-transfection in the cells treated with vehicle control (0.1% dimethyl sulfoxide [DMSO]) (Fig. 6A). […] NU7026 inhibits double-strand break repair, which is a necessary step after DNA cleavage by RAG enzymes, and thus serves as an indirect inhibitor of RAG activity ([35]).
To test the effect of HIV-1 integrase inhibitors on V(D)J recombination activity, we optimized an extrachromosomal cell-based V(D)J recombination assay ([33]). Briefly, Expi293 cells were plated at 1 × 10^6 cells/mL in six-well plates in Gibco Expi293 expression media the day before transfection. The next day, the Expi293 cells were co-transfected with three separate vectors, pMAXgfp-INV plasmid substrate, mCherry-core RAG1, and mCherry-RAG2 expression vectors with a 4:1 transfection reagent:DNA ratio using ExpiFectamine 293 transfection reagent (Gibco). Vehicle or candidate inhibitors were added to cell samples 2 h after transfection, with six different concentrations of each inhibitor added to separate wells. Fivefold dilutions for each inhibitor starting from 10 µM were tested.
Experiments were performed with six separate inhibitors in at least three independent experiments. Two negative control conditions for recombination activity were performed in parallel and include (i) transfections in the presence of NU7026 at 30 and 50 µM (Abcam) and (ii) using a modified pMAXgfp-INV substrate containing two 12RSSs (instead of one 12RSS and one 23RSS) that is inefficiently recombined by the RAG proteins. Vehicle control (0.1% DMSO) served as the positive control for GFP expression. The fluorescence signal from the mCherry tag was used to assess transfection efficiency. […]

[2] = target: T1, recombinant human core RAG1 (AA387-1011)/core RAG2 (AA1-387) in the presence of HMGB1 (Homo sapiens, UniProt P15918+P55895); assay: Biochemical RAG DNA cleavage assay (gel-based, dsDNA 12RSS/23RSS substrate); conditions: 25 nM RAG1-RAG2, 575 nM HMGB1, 10 nM dsDNA, 5 mM MgCl2, 1 h 37°C, no serum
T1 construct: made in house; host or cells: RAG1/RAG2 co-expressed in Expi293F GnTI human cells; HMGB1 in E. coli BL21DE3
T1 sequence (P15918 387-1011): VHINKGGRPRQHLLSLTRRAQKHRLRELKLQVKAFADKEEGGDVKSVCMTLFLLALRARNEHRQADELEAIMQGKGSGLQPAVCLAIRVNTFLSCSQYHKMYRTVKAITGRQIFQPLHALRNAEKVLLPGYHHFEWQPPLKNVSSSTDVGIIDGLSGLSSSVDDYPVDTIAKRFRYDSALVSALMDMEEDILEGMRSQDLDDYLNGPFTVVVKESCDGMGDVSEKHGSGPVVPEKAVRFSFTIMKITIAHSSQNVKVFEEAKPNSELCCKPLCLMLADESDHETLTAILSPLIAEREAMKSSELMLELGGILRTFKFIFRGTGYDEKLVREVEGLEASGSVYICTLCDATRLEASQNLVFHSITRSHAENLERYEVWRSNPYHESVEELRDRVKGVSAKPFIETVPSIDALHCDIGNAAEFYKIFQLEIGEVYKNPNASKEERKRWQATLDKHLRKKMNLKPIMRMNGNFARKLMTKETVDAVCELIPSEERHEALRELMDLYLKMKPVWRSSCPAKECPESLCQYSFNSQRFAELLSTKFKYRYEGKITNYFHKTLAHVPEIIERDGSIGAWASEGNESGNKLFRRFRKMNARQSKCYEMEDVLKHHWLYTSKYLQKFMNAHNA
T1 sequence (P55895 1-387): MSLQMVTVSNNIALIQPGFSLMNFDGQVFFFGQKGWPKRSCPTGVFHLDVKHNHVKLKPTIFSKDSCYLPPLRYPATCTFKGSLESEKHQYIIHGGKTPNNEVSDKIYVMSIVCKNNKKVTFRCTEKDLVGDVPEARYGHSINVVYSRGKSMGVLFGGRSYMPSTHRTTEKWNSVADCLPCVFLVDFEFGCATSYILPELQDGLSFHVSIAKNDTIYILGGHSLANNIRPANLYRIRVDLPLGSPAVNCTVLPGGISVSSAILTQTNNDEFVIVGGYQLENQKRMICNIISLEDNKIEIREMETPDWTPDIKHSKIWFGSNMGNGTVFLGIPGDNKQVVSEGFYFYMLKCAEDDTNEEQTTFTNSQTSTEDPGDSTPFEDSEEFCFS
Excerpt: To directly observe the potential inhibition of RAG1/RAG2, we measured the effect of INSTIs on DNA cleavage by RAG1/RAG2 in the presence of HMGB1. This biochemical system utilizes pre-assembled recombinant human core RAG1 (AA387-1011)/core RAG2 (AA1-387) in the presence of excess truncated HMGB1 (AA1-163) and a linear dsDNA RSS substrate, using gel electrophoresis and a fluorescent dye to monitor cleavage products (Fig. 2A) ([24]). The dsDNA RSS substrate, containing both the 12RSS and 23RSS, was designed to have the different cleavage products resolved via gel electrophoresis. RAG1/RAG2 can singly cleave either the 12RSS or the 23RSS, or both, leading to potentially five different products in the reaction (Fig. 2B). HMGB1 orients RAG1/RAG2 for proper binding to the RSS substrate ([16]). We quantified the activity of RAG as the percentage of substrate conversion to a specific cleaved product, as separated by agarose gel electrophoresis and determined by the DNA-binding fluorescent dye. With the 569-bp substrate, a single cleavage of the 12RSS results in a 492-bp dsDNA and a 77-bp hairpin. Cleavage of the 23RSS alone produces a 433-bp dsDNA and a 136-bp hairpin. Successful cleavage of both RSSs results in a 356-bp dsDNA and both of the 77- and 136-bp hairpins. For the RAG activity analysis, we measured the amount of double cleaved product (356 bp) in relation to the amount of substrate (569 bp) at the end of the reaction. The optimal concentrations of RAG1/RAG2, HMGB1, and MgCl2 were determined through titration (Fig. S2). Because there is no direct RAG1/RAG2 inhibitor previously characterized, we used suramin, a polyanionic compound commonly used as a non-specific inhibitor for DNA/RNA binding or processing proteins as a control for inhibition ([25], [26]).
Prior to the cleavage assay, compounds at the designated concentrations were spotted into 96-well plates using the Tecan Digital D300e (Tecan, Mannedorf, Switzerland). RAG1/RAG2 was incubated with HMGB1 and MgCl2 on ice for at least 15 min in a reaction buffer (25-mM 3-(N-morpholino)propanesulfonic acid [MOPS], pH 7.0, 50-mM KCl, and 2-mM DTT). After the initial incubation, the enzyme solution was added to the compound plates and incubated for an additional 15 min at room temperature. dsDNA substrate in reaction buffer was added to the plates to initiate the reaction. The final conditions of the reaction are 25-nM RAG1–RAG2 complex, 575-nM HMGB1, 10-nM dsDNA substrate, and 5-mM MgCl2. After 1 h at 37°C, reactions were quenched by the addition of final concentrations of 0.19% SDS, 45.5-µg/mL Proteinase K, and 60-mM EDTA.
Glycerol was added to a final concentration of 7.6% in each sample, and samples were loaded onto non-denaturing 6% Tris–borate–EDTA (TBE) gels in 1× TBE buffer. The samples were run at 100 V for 1.5 h, and gels were stained with 1× SYBR Gold in 1× TBE for 20 min. The stained gels were imaged with an Amersham Typhoon Biomolecular Imager.
The gel images were analyzed using ImageQuant software (Cytiva). The densities of the 569-bp-length substrate and fully cleaved 356-bp-length product were quantified. The product density was divided by the sum of substrate and product bands to obtain a percent product value. These calculated values were subtracted from a negative control (pre-quenched reaction where EDTA was added before reaction was initiated) and then normalized to the DMSO-treated control. The normalized data were plotted against concentration using GraphPad Prism (version 9.3; GraphPad Software, San Diego, CA, USA).

[3] = 5-day cytotoxicity assay with Cell Titer Glo readout, PBMC; assay type: cell-based; conditions: CC50
Excerpt: (§1) Supplemental Table S2. CC50 values for INSTIs in 5- day cytotoxicity as says with Cell Titer
(§2) Expi293F GALPC3 GALHEP HUH7 MRC5 MT4 PBMC PBMC
(§3) Kidney Prostate Hepatoma Hepatoma Lung T-cell line Primary Primary
(§4) (embryonic) cancer cell cell line cell line fibroblast cells

[4] = tested on: PBMC primary cells; assay: as above; assay type: cell-based; conditions: 5 day
Excerpt: as §1, §2, §3, §4

[5] = 5-day cytotoxicity assay with Cell Titer Glo readout, MRC5; assay type: cell-based; conditions: human
Excerpt: as §1, §2, §3, §4

[6] = 5-day cytotoxicity assay with Cell Titer Glo readout, GALPC3; assay type: cell-based; conditions: human
Excerpt: as §1, §2, §3, §4

[7] = 5-day cytotoxicity assay with Cell Titer Glo readout, MT4; assay type: cell-based; conditions: human
Excerpt: as §1, §2, §3, §4

[8] = 5-day cytotoxicity assay with Cell Titer Glo readout, HUH7; assay type: cell-based; conditions: human
Excerpt: as §1, §2, §3, §4

[9] = 5-day cytotoxicity assay with Cell Titer Glo readout, GALHEPG2; assay type: cell-based; conditions: human
Excerpt: as §1, §2, §3, §4

[10] = target: T2, human core RAG1 (AA387-1011), MBP-10N-PreScission-RAG1 (human, UniProt P15918-1 387-1011); assay: SEC; analytical SEC-HPLC, Superdex 200 Increase 5/150 GL column, 10-µg protein sample; co-expressed and co-purified MBP-tagged core RAG1 and core RAG2; conditions: both partners purified
T2 construct: also called RAG1 core domain; source: Expi293F GnTI cells, plasmids transfected (co-expressed with core RAG2), purified (MBP-Trap, Superdex 200); not shown: MBP, N-terminal, kept
T2 sequence (looked up): T1 sequence (P15918 387-1011)

- IC50 ([1]; compound added 2 h after transfection, read 48 h post-transfection, serum-free media, read-out: IC50 in cellular V(D)J recombination assay (% GFP-positive cells)): 41500 ± 9400 nM
Molecule: O=c1cc(N2CCOCC2)oc2c1ccc1ccccc12 [NU7026]
- Effect on percentage of GFP-positive cells / RAG recombination ([1]; across concentrations tested, 48 h post-transfection): dose-dependent decrease in percentage of GFP-positive cells

- IC50 [2]: 4500 ± 400 nM
Molecule: Cc1ccc(C(=O)Nc2ccc(S(=O)(=O)O)c3cc(S(=O)(=O)O)cc(S(=O)(=O)O)c23)cc1NC(=O)c1cccc(NC(=O)Nc2cccc(C(=O)Nc3cc(C(=O)Nc4ccc(S(=O)(=O)O)c5cc(S(=O)(=O)O)cc(S(=O)(=O)O)c45)ccc3C)c2)c1 [Suramin]

Molecule: COc1ccc(C[C@H](N)C(=O)N[C@H]2[C@@H](O)[C@H](n3cnc4c(N(C)C)ncnc43)O[C@@H]2CO)cc1 [Puromycin]
- CC50 at 5 day [3]: 540 nM
- CC50 [4]: 500 nM
- CC50 at 5 day [5]: 310 nM
- CC50 at 5 day [6]: 390 nM
- CC50 at 5 day [7]: 210 nM
- CC50 at 5 day [8]: 320 nM
- CC50 at 5 day [9]: 410 nM

- binding result [10]: binds
B1: human core RAG2 (AA1-387), MBP-5A-RAG2 (domain or fragment, UniProt P55895 1-387, looked up)
chain: T1 sequence (P55895 1-387)
notes: also called RAG2 core domain; source: Expi293F GnTI cells, plasmids transfected (co-expressed with core RAG1), purified (MBP-Trap, Superdex 200); not shown: MBP, N-terminal, kept
